Active and inactive are the calls of the source. No cut-off for these calls is given here. Bridge positions count the residues as written; N and C are the ends. Square brackets hold non-standard residues; d marks the D form. Peptide text beside a SMILES is read from it. S5 = C=CCCC[C@](C)(N)C(=O)O
Experiments:
[1] = test system: A549; experiment: Induction of apoptosis in human A549 cells harboring KRAS G12S mutant assessed as viable cells at 10 uM incubated for 24 hrs by Annexin V-FITC/PI staining based flow cytometric analysis (reference value: 68.3%); format: functional; conditions: A549, 24 h, read-out: Activity
[2] = test system: NCI-H358; experiment: Induction of apoptosis in human NCI-H358 cells harboring KRAS G12C mutant assessed as early apoptotic cells at 2.5 uM incubated for 24 hrs by Annexin V-FITC/PI staining based flow cytometric analysis (reference value: 4.34%); format: functional
[3] = test system: A549; experiment: Induction of cell cycle arrest in human A549 cells harboring KRAS G12S mutant assessed as reduction in CDK1 protein expression at 40 uM incubated for 24 hrs by Western blot analysis; format: functional, cell-based
[4] = test system: A549; experiment: Induction of apoptosis in human A549 cells harboring KRAS G12S mutant assessed as viable cells at 20 uM incubated for 24 hrs by Annexin V-FITC/PI staining based flow cytometric analysis (reference value: 68.3%); format: functional; conditions: A549, 24 h, read-out: Activity
[5] = test system: NCI-H358; experiment: Induction of apoptosis in human NCI-H358 cells harboring KRAS G12C mutant assessed as early apoptotic cells at 20 uM incubated for 24 hrs by Annexin V-FITC/PI staining based flow cytometric analysis (reference value: 4.34%); format: functional
[6] = test system: A549; experiment: Induction of cell cycle arrest in human A549 cells harboring KRAS G12S mutant assessed as accumulation at G2/M phase at 10 to 40 uM incubated for 24 hrs by PI staining based flow cytometric analysis; format: functional
[7] = test system: A549; experiment: Induction of apoptosis in human A549 cells harboring KRAS G12S mutant assessed as increase in bax protein level at 40 uM incubated for 24 hrs by Western blot analysis; format: functional, cell-based
[8] = test system: A549; experiment: Induction of apoptosis in human A549 cells harboring KRAS G12S mutant assessed as early apoptotic cells at 10 uM incubated for 24 hrs by Annexin V-FITC/PI staining based flow cytometric analysis (reference value: 6.09%); format: functional
[9] = test system: NCI-H358; experiment: Induction of cell cycle arrest in human NCI-H358 cells harboring KRAS G12C mutant assessed as accumulation at G2/M phase at 10 to 40 uM incubated for 24 hrs by PI staining based flow cytometric analysis (reference value: 11.08%); format: functional
[10] = test system: A549; experiment: Induction of apoptosis in human A549 cells harboring KRAS G12S mutant assessed as necrotic cells at 20 uM incubated for 24 hrs by Annexin V-FITC/PI staining based flow cytometric analysis (reference value: 0.16%); format: functional
[11] = test system: NCI-H358; experiment: Induction of apoptosis in human NCI-H358 cells harboring KRAS G12C mutant assessed as early apoptotic cells at 10 uM incubated for 24 hrs by Annexin V-FITC/PI staining based flow cytometric analysis (reference value: 4.34%); format: functional
[12] = test system: NCI-H358; experiment: Induction of apoptosis in human NCI-H358 cells harboring KRAS G12C mutant assessed as necrotic cells at 10 uM incubated for 24 hrs by Annexin V-FITC/PI staining based flow cytometric analysis (reference value: 0.28%); format: functional
[13] = test system: NCI-H358; experiment: Induction of cell cycle arrest in human NCI-H358 cells harboring KRAS G12C mutant assessed as reduction in cyclin B1 protein expression at 40 uM incubated for 24 hrs by Western blot analysis; format: functional, cell-based

CC[C@H](C)[C@H](NC(=O)CNC(=O)[C@H](Cc1ccccc1)NC(=O)[C@H](Cc1ccccc1)NC(=O)[C@H](CCCNC(=N)N)NC(=O)[C@H](CCCNC(=N)N)NC(C)=O)C(=O)N[C@@]1(C)CCC/C=C\CCC[C@@](C)(C(=O)N[C@@H](CC(C)C)C(=O)N[C@@H](CCCCN)C(=O)N[C@H](C(=O)N[C@@H](CCC(=O)O)C(=O)N[C@@H](CCC(=O)O)C(=O)NCC(=O)N[C@@H](CC(N)=O)C(=O)O)[C@@H](C)O)NC(=O)[C@H](CC(N)=O)NC(=O)[C@H](CC(=O)O)NC(=O)[C@H]([C@@H](C)O)NC(=O)[C@H](CC(C)C)NC(=O)[C@H](CC(=O)O)NC1=O (Ac-RRFFGI[S5]DLTDN[S5]LKTEEGN-OH; staple (Z) 7-13)
viability at 10 µM [1]: 67.6%
Activity [2]: 4.22%
Activity [3]: inactive
viability at 20 µM [4]: 67.3%
Activity [5]: 6.49%
Activity [6]: inactive
Activity [7]: inactive
Activity [8]: 1.79%
Activity [9]: 34.4%
Activity [10]: 0.33%
Activity [11]: 6.37%
Activity [12]: 0.26%
Activity [13]: Active

From ChEMBL document CHEMBL4373743, “Selective apoptosis-inducing activity of synthetic hydrocarbon-stapled SOS1 helix with d-amino acids in H358 cancer cells expressing KRASG12C” (Eur J Med Chem, 2020)
